Earlier results on one molecule are cited in patent US20150127309A1, “Method To Translate Biodynamic Spectrograms Into High-Content Information” (Purdue Research Foundation, priority 2013, published 2015).

For data set [1] the following is noted: ref [78].
For data set [2], the system named is three Raf isoforms. Conditions: in serum; refs [75-77].

As for `CCCS(=O)(=O)Nc1ccc(F)c(C(=O)c2c[nH]c3ncc(-c4ccc(Cl)cc4)cc23)c1F` [PLX4032], the toxicity entry in data set [1] is “minimal toxicity”. Besides, the tolerated serum levels entry in data set [1] (serum) is “up to 50 μM”. Besides, the “activity against Raf isoforms” value in data set [2] is on record as “active against three Raf isoforms at nanomolar concentrations”.
